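How tested: cells in 96-well plates exposed to compound for 48 hours at five concentrations. GI50: concentration for 50% inhibition of growth.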 Activity calls are given as the source filed them. Rule as the data show it: active = GI50 up to about 1.1 µM and inactive = higher.
Experiments:
Experiment in all cases: NCI anticancer screen, dose series, 48 h
[1] = system: MOLT-4
[2] = system: SN12C
[3] = system: CCRF-CEM
[4] = system: M14
[5] = system: OVCAR-8
[6] = system: MDA-MB-231
[7] = system: IGROV-1
[8] = system: NCI-H226
[9] = system: MDA-N
[10] = system: K562
[11] = system: HCT-116
[12] = system: CAKI-1
[13] = system: HT-29
[14] = system: BT-549
[15] = system: HOP-62
[16] = system: HCT-15
[17] = system: SF-268
[18] = system: OVCAR-5
[19] = system: SR

SMILES | GI50 [1] | GI50 [2] | GI50 [3] | GI50 [4] | GI50 [5] | GI50 [6] | GI50 [7] | GI50 [8] | GI50 [9] | GI50 [10] | GI50 [11] | GI50 [12] | GI50 [13] | GI50 [14] | GI50 [15] | GI50 [16] | GI50 [17] | GI50 [18] | GI50 [19]
c1ccc(CNCCCNCCCCNCCCNCc2ccccc2)cc1 | 0.834 µM (active) | 3.72 µM (inactive) | 1.86 µM (inactive) | 5.46 µM (inactive) | 12.8 µM (inactive) | 6.5 µM (inactive) | 1.93 µM (inactive) | 4.68 µM (inactive) | 1.83 µM (inactive) | 1.67 µM (inactive) | 2.94 µM (inactive) | 10.3 µM (inactive) | 1.92 µM (inactive) | 16.7 µM (inactive) | 4.15 µM (inactive) | 15.8 µM | 12.2 µM (inactive) | 5.22 µM (inactive) | 3.39 µM (inactive)
COc1ccc(N2C(=O)CS(=O)(=O)C2c2cccc(Oc3ccccc3)c2)cc1 (configuration not stated) | 3.5 µM (inactive) | 4.65 µM (inactive) | 5.25 µM (inactive) | 3.7 µM (inactive) | 4.08 µM (inactive) | 2.69 µM (inactive) |  | 4.79 µM (inactive) | 1.22 µM (inactive) | 1.71 µM (inactive) | 2.17 µM (inactive) | 2.72 µM (inactive) | 3.68 µM (inactive) | 7.74 µM (inactive) | 7.53 µM (inactive) | 3.33 µM | 4.98 µM (inactive) | 7.73 µM (inactive) | 1.92 µM (inactive)
O=C(O)C1C(C(=O)O)C(C(=O)O)C1C(=O)O (configuration not stated) | > 100 µM (inactive) | > 100 µM (inactive) | > 100 µM (inactive) | > 100 µM (inactive) | > 100 µM (inactive) | > 100 µM (inactive) | > 100 µM (inactive) | > 100 µM (inactive) | > 100 µM (inactive) | > 100 µM (inactive) | > 100 µM (inactive) | > 100 µM (inactive) | > 100 µM (inactive) | > 100 µM (inactive) | > 100 µM (inactive) | > 100 µM | > 100 µM (inactive) | > 100 µM (inactive) | 28.9 µM (inactive)
CSc1nc(C)cc(Nc2ccc(O)c(CN3CCOCC3)c2)n1 | 53.6 µM (inactive) | > 100 µM (inactive) | > 100 µM (inactive) | > 100 µM (inactive) | > 100 µM (inactive) | > 100 µM (inactive) | > 100 µM (inactive) | > 100 µM (inactive) | > 100 µM (inactive) | > 100 µM (inactive) | > 100 µM (inactive) | > 100 µM (inactive) | 76.9 µM (inactive) | > 100 µM (inactive) | > 100 µM (inactive) | > 100 µM | > 100 µM (inactive) | > 100 µM (inactive) | > 100 µM (inactive)
O=C(CNc1ccc([N+](=O)[O-])cc1)Nn1c(-c2ccccc2)nc2ccccc2c1=O | 1.89 µM (inactive) | 2.2 µM (inactive) | 0.811 µM (active) | 3.03 µM (inactive) | 4.24 µM (inactive) | 3.52 µM (inactive) | 3.64 µM (inactive) | 4.69 µM (inactive) | 3.49 µM (inactive) | 1.91 µM (inactive) | 3.03 µM (inactive) | 2.24 µM (inactive) | 3.06 µM (inactive) | 1.82 µM (inactive) | 11.2 µM (inactive) | 2.93 µM | 4.23 µM (inactive) | 5.73 µM (inactive) | 3.1 µM (inactive)
CCC/C(Cl)=N\OC(=O)Nc1cccc(C(F)(F)F)c1 | 2.94 µM (inactive) | 15.1 µM (inactive) | 2.43 µM (inactive) | 17.7 µM (inactive) | 17.9 µM (inactive) | 17 µM (inactive) | 17.1 µM (inactive) | 20.5 µM (inactive) | 17.6 µM (inactive) | 2.28 µM (inactive) | 18.2 µM (inactive) | 18.1 µM (inactive) | 21.8 µM (inactive) | 10.6 µM (inactive) | > 100 µM (inactive) | 13.5 µM | 27.3 µM (inactive) | 20.3 µM (inactive) | 2.26 µM (inactive)
CCCCn1c(CSc2ccc(Cl)cc2)c(C(=O)OCC)c2cc(OC)c(Br)cc21 | > 100 µM (inactive) | > 100 µM (inactive) | > 100 µM (inactive) | > 100 µM (inactive) | > 100 µM (inactive) | > 100 µM (inactive) | > 100 µM (inactive) | > 100 µM (inactive) | > 100 µM (inactive) | > 100 µM (inactive) | > 100 µM (inactive) | 31.5 µM (inactive) |  | > 100 µM (inactive) | > 100 µM (inactive) | > 100 µM | > 100 µM (inactive) | > 100 µM (inactive) | 88.7 µM (inactive)
COC(NC(N)=O)C(=O)O (configuration not stated) | > 100 µM (inactive) | > 100 µM (inactive) | 11 µM (inactive) | > 100 µM (inactive) | > 100 µM (inactive) | > 100 µM (inactive) | > 100 µM (inactive) | > 100 µM (inactive) | > 100 µM (inactive) | > 100 µM (inactive) | > 100 µM (inactive) | > 100 µM (inactive) | > 100 µM (inactive) | > 100 µM (inactive) | > 100 µM (inactive) | > 100 µM | > 100 µM (inactive) | > 100 µM (inactive) | > 100 µM (inactive)
COc1ccc2c(c1)O[C@@H]1[C@@H](OC3OC(CO)C(O)C(O)C3O)Oc3cc(OC)c(OC)cc3[C@]1(O)C2=O (some centres not stated) | > 100 µM (inactive) | > 100 µM (inactive) | > 100 µM (inactive) | > 100 µM (inactive) | > 100 µM (inactive) | > 100 µM (inactive) | > 100 µM (inactive) | 34 µM (inactive) | > 100 µM (inactive) | > 100 µM (inactive) | > 100 µM (inactive) | > 100 µM (inactive) | > 100 µM (inactive) | > 100 µM (inactive) | > 100 µM (inactive) | > 100 µM | > 100 µM (inactive) | > 100 µM (inactive) | > 100 µM (inactive)
COC(OC)C1OCC(n2cc(F)c(=O)[nH]c2=O)C1O (configuration not stated) | > 100 µM (inactive) | > 100 µM (inactive) | > 100 µM (inactive) | > 100 µM (inactive) | > 100 µM (inactive) | > 100 µM (inactive) | > 100 µM (inactive) | > 100 µM (inactive) | > 100 µM (inactive) | > 100 µM (inactive) | > 100 µM (inactive) | > 100 µM (inactive) | > 100 µM (inactive) | > 100 µM (inactive) | > 100 µM (inactive) | > 100 µM | > 100 µM (inactive) | > 100 µM (inactive) | > 100 µM (inactive)
CCN(CC)c1c(-c2c(OC(C)C)c(=O)c2=O)c(=O)n2ccsc2c1OC(C)=O | > 100 µM (inactive) | > 100 µM (inactive) | > 100 µM (inactive) | > 100 µM (inactive) | > 100 µM (inactive) | > 100 µM (inactive) | 89.9 µM (inactive) | > 100 µM (inactive) | > 100 µM (inactive) | > 100 µM (inactive) | > 100 µM (inactive) | > 100 µM (inactive) | > 100 µM (inactive) | > 100 µM (inactive) | > 100 µM (inactive) | > 100 µM | > 100 µM (inactive) | > 100 µM (inactive) | > 100 µM (inactive)
